Our source for the Activity values is ChEMBL document CHEMBL1135003, “Synthesis of aglycon analogues of sarmentosin and their bioactivity of lymphocyte proliferation” (2002).

Holding throughout (assay type): functional
The nature of assay [1]: In vitro effect on the proliferation of T lymphocytes of mouse splenocytes at 20 umol/L to show the cell-mediated immunity by [3H]thymidine incorporation. (Incorporation of labelled thymidine or its analogues reports DNA synthesis.)
Assay [2] in a line: In vitro effect on the proliferation of T lymphocytes of mouse splenocytes at 2 umol/L to show the cell-mediated immunity by [3H]thymidine incorporation.
A short description of assay [3]: In vitro effect on the proliferation of B lymphocytes of mouse splenocytes at 0.2 umol/L to show the antibody formation by [3H]thymidine incorporation.
The nature of assay [4]: In vitro effect on the proliferation of B lymphocytes of mouse splenocytes at 2.0 umol/L to show the antibody formation by [3H]thymidine incorporation.
Assay [5] is described as follows: In vitro effect on the proliferation of T lymphocytes of mouse splenocytes at 0.2 umol/L to show the cell-mediated immunity by [3H]thymidine incorporation.
The nature of assay [6]: In vitro effect on the proliferation of B lymphocytes of mouse splenocytes at 20 umol/L to show the antibody formation by [3H]thymidine incorporation.

`N#C/C(=C\COC(=O)c1ccc(Cl)cc1Cl)CO`: the Activity in assay [1] was 131%; in assay [2], 94%; in assay [3], 68%; in assay [4], 69%; in assay [5], 119%; in assay [6], 73%.
With `N#C/C(=C\COC(=O)c1ccccc1)CO`, the Activity in assay [1] turned out to be 23%; in assay [2], 68%; in assay [3], 137%; in assay [4], 73%; in assay [5] it was 97%; in assay [6], 67%.
In the case of `N#C/C(=C\COc1ccccc1)CO`, the Activity stood at 131% in assay [1]; 113% in assay [2]; 51% in assay [3]; 48% in assay [4]; 100% in assay [5]; 45% in assay [6].
Take `COc1ccc(OC/C=C(\C#N)CO)cc1`: the Activity amounted to 80% in assay [1]; 114% in assay [2]; 81% in assay [3]; 77% in assay [4]; 101% in assay [5]; 79% in assay [6].
Take `COc1ccc(C(=O)OC/C=C(\C#N)CO)cc1`: the Activity in assay [1] worked out at 25%; in assay [2], 63%; in assay [3] it was 109%; in assay [4], 86%; in assay [5] it was 100%; in assay [6], 31%.
Regarding `N#C/C(=C\COC(=O)c1ccc(F)cc1Cl)CO`, the Activity is listed as 29% in assay [1]; 98% in assay [2]; 151% in assay [3]; 151% in assay [4]; 123% in assay [5]; 113% in assay [6].
Take `COc1ccc(COC/C=C(\C#N)CO)cc1`: the Activity in assay [1] came out at 37%; in assay [2], 54%; in assay [3], 169%; in assay [4] it was 71%; in assay [5], 93%; in assay [6], 38%.
For `N#C/C(=C\COC(=O)/C=C/c1ccccc1)CO`, the Activity in assay [1] is 38%; in assay [2] it was 62%; in assay [3] it was 96%; in assay [4] it was 69%; in assay [5] it was 80%; in assay [6] it was 20%.
